The source of these data is US5550138A, “Condensed thiadiazole derivative, method of its production, and use thereof” (Takeda Chemical Industries, Ltd., priority 1992, dated 1996).

One data set relates to Cathepsin B. Briefly: Determination of cathepsin B inhibitory activity. It counts as biochemical. Particulars: substrate Z-Phe-Arg-NH-Mec; pH 5.5; 37° C., 20 minutes. The protocol:
Determination of cathepsin B inhibitory activity
Cathepsin B (produced by Sigma) was diluted with 100 mM sodium acetate buffer (pH 5.5) to a concentration of 30 μg/ml. To 1 μl of this enzyme dilution, 46 μl of diluent, 2 μl of 0.1M DTT and 25 μl of activator/buffer (340 mM sodium acetate, 60 mM acetic acid, 4 mM EDTA disodium salt, pH 5.5) were added. To this mixture, a 1 μl sample, diluted to 10^-3 M with dimethylsulfoxide (DMSO), and 25 μl of 20 μM Z-Phe-Arg-NH-Mec (enzyme substrate solution) were added. After the mixture was incubated at 37° C. for 20 minutes, 100 μl of a stop solution (100 mM sodium monochloroacetate, 30 mM sodium acetate, pH 4.3) was added. The reaction was carried out on a 96-well fluoropiate (produced by Labo-Systems).
After the reaction was stopped, the absorbance of free aminomethylcoumarin was determined by excitation at 365 nm and emission at 450 nm, using Fluorescence Concentration Analyzer (produced by Baxter). One μl of sample-free DMSO was added for control, and the absorbance from reaction of this control was defined as 100% activity. For samples of under 10% residual activity, further dilutions were assayed for residual activity as described above to obtain the IC50 value.

The target in another data set is endothelin receptor. Briefly: Inhibition of endothelin-1 binding to endothelin receptor (125I-endothelin binding test, rabbit ventricular microsomal fraction). Particulars: 125I-endothelin-1 6×10^-11 M, 37° C., 90 minutes. The protocol:
Inhibition of endothelin-1 binding to endothelin receptor
(a) Preparation of rabbit ventricular microsomal fraction
Rabbit ventricular microsomal fraction was prepared by the method described in Methods in Enzymology, 109, 513 with a slight modification. The cardiac ventricular muscle excised from a 2 to 2.5 kg rabbit was minced in solution A (20 mM NaHCO3, 0.1 mM phenylmethylsulfonyl fluoride (PMSF)) and then homogenized using a Polytron PT-20, and centrifuged at 1500×g for 15 minutes. The supernatant was centrifuged at 45000×g for 15 minutes. The resulting sediment was suspended in solution B (50 mM Tris-HCl pH 7.4, 0.1 mM PMSF) and then re-centrifuged at 45000×g for 15 minutes. The sediment was again suspended in solution B and then centrifuged at 45000×g for 15 minutes. The sediment was re-suspended in solution B, and the suspension was frozen with liquid nitrogen and stored at -80° C. This series of operations was performed at 4° C. Protein contents was determined by Lowry's method.
(b) ^125 I-endothelin binding test
To 250 μl of a reaction solution (50 mM Tris-HCl, pH 7.4, 0.2% BSA (bovine serum albumin)), supplemented with 6×10^-11 M ^125 I-endothelin-1 (Amersham Japan) 50 μl of the ventricular microsomal fraction (20 μg) and a sample were added, followed by incubation at 37° C. for 90 minutes. The reaction mixture was then filtered through a GF/B glass filter (Millipore Japan), and the filter was washed with a 40-fold (12 ml) of the reaction solution. The radioactivity of the ^125 I-endothelin on the glass filter was determined using a gamma-ray counter. Nonspecific binding was defined as the amount of ^125 I-endothelin in the presence of 4×10^-7 M unlabelled endothelin-1 and was less than 8% of total binding. The specific binding was calculated as total binding minus nonspecific binding. Non-specific binding accounted for not higher than 8% of the total binding. The inhibitory rate of the compound is expressed as the concentration (IC50 M) required to cause a 50% reduction in the specific binding.

In the next data set the test system is bone resorption. Briefly: Inhibition of bone resorption (45Ca release from fetal rat forearm bones). It counts as cell-based, rat (Sprague-Dawley). The note with it: 48 h, 10 μg/ml compound, two days of culture, read-out: Inhibition of Bone Resorption [45Ca released (percent ratio to control)]. The protocol: Inhibition of bone resorption
The inhibitory effect of compound on bone resorption was measured by the method of Rais 3 [Journal of Clinical Investigation, 44, 103-116 (1965)]. Specifically, one Sprague-Dawley rat, at 19 days of gestation, was given 50 μCi of ^45 Ca (calcium isotope, in CaCl2 solution) by subcutaneous injection. On the following day, fetal rats were aseptically taken out, both forearm bones (radius and ulna) were cut out from the body of each fetus, and connective tissue and cartilages were removed to maximum possible extent, to yield prepare bone culture samples. Each bone fragment was incubated at 37° C. for 24 hours in 0.6 ml of BGJb medium (Fitton-Jackson modification, produced by GIBCO Laboratories, United States) containing 2 mg/ml bovine serum albumin, after which it was cultured in the same medium as above but containing a 10 μg/ml compound for two more days. ^45 Ca radioactivity in the medium and ^45 Ca radioactivity in the bone were then measured, and the percent ratio of ^45 Ca released from the bone to the medium was calculated using the following equation: [formula]
For control, bone fractions from fetuses of the same litter were cultured for two days in the absence of the test compound. The mean ± standard deviation for the values from five bone fragments in each group were calculated, and their percent ratios to the control were calculated.

A further data set has as its system swine coronary artery. Briefly: Inhibitory action on endothelin-1-induced constriction in swine coronary artery. It is filed as cell-based. Particulars: Sus scrofa, relaxation of maximum constriction induced by endothelin-1 (3×10^-9 M); for inhibition at 100 µM: compound 1 × 10^-4 M; for inhibition at 10 µM: compound 1 × 10^-5 M; for inhibition at 30 µM: compound 3 × 10^-5 M. The protocol:
Inhibitory action on endothelin-1-induced constriction in swine coronary artery
After fat tissue removal, the swine left coronary arterial anterior descending branch (LAD) was isolated and vascular rings were prepared. These arterial rings kept at 37° C., were suspended in a 20 ml organ chamber filled with Krebs solution being aerated with 95% O2 /5% CO2 gas. Two grams of the tension was applied. After equilibration for 1 hr, 60 mMKCl was applied to condition the coronary rings. The test compound was tested for inhibition of the constriction induced by endothelin-1 (3×10^-9 M) by adding the test compound when the maximum of endothelin-1 induced constriction was reached. Activity is expressed as percent relaxation of the maximum constriction induced by endothelin-1. The developed tension of rings was reached isometrically.

The test system of the next data set is mice. Briefly: Toxicity in mice (deaths). It is filed as in vivo. Particulars: 300 mg/kg dose. Here is the method: Although the daily dose varies depending on the condition and weight of the patient, kind of the compound, route of administration and other factors, it is administered parenterally, specifically subcutaneously, intravenously, intramuscularly or rectally at about 0.05 to 100 mg/kg/day, preferably 0.5 to 50 mg/kg/day as an endothelin receptor antagonist, about 0.1 to 100 mg/kg/day, preferably 1 to 50 mg/kg/day as a cathepsin B inhibitor and about 1 to 200 mg/kg/day, preferably 5 to 100 mg/kg/day as a bone resorption suppressor, respectively. For use as an oral agent, it is desirable to administer it at about 0.1 to 500 mg/kg/day, preferably 0.5 to 200 mg/kg/day as an endothelin receptor antagonist, about 1 to 500 mg/kg/day, preferably 10 to 300 mg/kg/day as a cathepsin B inhibitor and about 5 to 1000 mg/kg/day, preferably 10 to 300 mg/kg/day as a bone resorption suppressor, respectively.

Molecules are shown by their SMILES.

One may read the IC50 as the midpoint of a concentration-inhibition curve. In the data set with Cathepsin B, `CCNC(=O)Cc1sc2nc(=NS(=O)(=O)c3ccc(C)cc3)sn2c1-c1ccc2c(c1)CCCC2` [Example 31] returned a half-maximal inhibitory concentration (IC50) of 2.9 µM. As for `Cc1ccccc1S(=O)(=O)N=c1nc2sc(C)c(-c3ccc(C4CCCCC4)cc3)n2s1` [Example 73], the IC50 on endothelin receptor was 7.3 µM. `CCCCOc1ccc(-c2c(CC)sc3nc(=NS(=O)(=O)c4ccc(C)cc4)sn23)cc1` [Example 104] yielded a half-maximal inhibitory concentration (IC50) at endothelin receptor of 2.7 µM. On to `CCc1sc2nc(=NS(=O)(=O)c3ccc(C)cc3)sn2c1CC(=O)NCC1CCCCC1` [Example 65], for which the activity at 10 µg/mL with bone resorption worked out at 74%. The term inhibition denotes the relative decrease from the control value, in per cent. Read a high inhibition as strong suppression. In the data set on swine coronary artery, `Cc1ccc(S(=O)(=O)N=c2nc3sc(C(C)C)c(-c4ccc5c(c4)CCCC5)n3s2)cc1` [Example 24] came in with an inhibition at 100 µM of 99% and an inhibition at 10 µM of 37%. Moreover, the concentration for half-maximal inhibition (IC50) at endothelin receptor came out at 2.5 µM.

`CCc1sc2nc(=NS(=O)(=O)c3ccc(C)cc3)sn2c1-c1cn(C)c2ccccc12` [Example 106] came in with a 50% inhibitory concentration (IC50) at endothelin receptor of 4.2 µM. This counts as single-digit micromolar.

In the data set with swine coronary artery, `Cc1ccccc1S(=O)(=O)N=c1nc2cc3c(cn2s1)CCCC3` [Example 13] came in with an inhibition at 100 µM of 78% and an inhibition at 10 µM of 56%. On endothelin receptor, the IC50 was determined as 5.9 µM.

`Cc1ccc(S(=O)(=O)N=c2nc3sc(CC4CCCCC4)c(-c4ccc5c(c4)CCCC5)n3s2)cc1` [Example 25] had an IC50 in the data set on Cathepsin B of 1.2 µM. In the data set on bone resorption, the activity at 10 µg/mL was determined as 72%.

On to `CCCc1sc2nc(=NS(=O)(=O)c3ccc(C)cc3)sn2c1-c1ccc2c(c1)CCCC2` [Example 23], for which the IC50 at endothelin receptor was found to be 2.5 µM. The same measure, in the same setting: to `CCOC(=O)Cc1sc2nc(=NS(=O)(=O)c3ccc(C)cc3)sn2c1-c1ccc2c(c1)CCCC2` [Example 26] belongs 4 µM. In the data set with swine coronary artery, `CCCS(=O)(=O)N=c1nc2sc(C)c(-c3ccc(C4CCCCC4)cc3)n2s1` [Example 111] gave an inhibition at 10 µM of 40% and an inhibition at 30 µM of 78%. This compound also returned a half-inhibitory concentration (IC50) at endothelin receptor of 6.1 µM. In addition, in the data set on bone resorption, the activity at 10 µg/mL came to 75%.

Turning to `CCc1sc2nc(=NS(=O)(=O)c3ccc(C)cc3)sn2c1-c1ccc2c(c1)CCCC2` [Example 20, 5-ethyl-2-(4-methylphenyl)sulfonylimino-6-(5,6,7,8-tetrahydro-2-naphthyl)-2H-thiazolo[3,2-b][1,2,4]thiadiazole], in the data set with swine coronary artery, the inhibition at 100 µM is 68% and the inhibition at 10 µM is 11%. Besides, the half-inhibitory concentration (IC50) at endothelin receptor is 3 µM.

`CCOC(=O)CCCc1sc2nc(=NS(=O)(=O)c3ccc(C)cc3)sn2c1-c1ccc(C2CCCCC2)cc1` [Example 98] yielded a concentration for half-maximal inhibition (IC50) with Cathepsin B of 3.5 µM. Further, the activity at 10 µg/mL in the data set with bone resorption was 87%.

Consider `CCc1sc2nc(=NS(=O)(=O)CC(C)(C)CO)sn2c1-c1ccc(C2CCCCC2)cc1` [Example 115], for which the activity at 10 µg/mL with bone resorption was found to be 85%.

At endothelin receptor, `CCc1sc2nc(=NS(=O)(=O)c3ccc(C)cc3)sn2c1-c1ccc(C2CCCCC2)cc1` [Example 99] gave an IC50 of 2.1 µM. As for `Cc1sc2nc(=NS(=O)(=O)Cc3ccccc3)sn2c1-c1ccc(C2CCCCC2)cc1` [Example 83], the deaths entry with mice is recorded as “no deaths occurred”. Besides, the IC50 at endothelin receptor is 6 µM. Turning to `Cc1ccc(S(=O)(=O)N=c2nc3cc4c(cn3s2)CCCC4)cc1` [Example 12], in the data set on swine coronary artery, the inhibition at 100 µM stood at 62% and at 10 µM the inhibition was 14%. The compound further yielded a half-maximal inhibitory concentration (IC50) at endothelin receptor of 6.5 µM. As to `CCc1sc2nc(=NS(=O)(=O)c3ccc(F)cc3)sn2c1-c1ccc(C2CCCCC2)cc1` [Example 114], in the data set on swine coronary artery, the inhibition at 10 µM worked out at 44% and the inhibition at 30 µM was 75%. For the same compound, the IC50 on endothelin receptor was 3.8 µM.

Take `Cc1sc2nc(=NS(=O)(=O)c3cccnc3)sn2c1-c1ccc(C2CCCCC2)cc1` [Example 108]: it took 1.1 µM to reach half-maximal inhibition with Cathepsin B (IC50). Besides, the activity at 10 µg/mL with bone resorption stood at 85%. The matching figures for `CCOC(=O)CCC(NC(=O)CCc1sc2nc(=NS(=O)(=O)c3ccc(C)cc3)sn2c1-c1ccc2c(c1)CCCC2)C(=O)OCC` (stereo not shown) [Example 96]: 1.9 µM and 81%.

In the case of `Cc1ccc(NC(=O)Cc2sc3nc(=NS(=O)(=O)c4ccc(C)cc4)sn3c2-c2ccc3c(c2)CCCC3)cc1` [Example 34], the 50% inhibitory concentration (IC50) with Cathepsin B came to 9.3 µM. Besides, in the data set on bone resorption, the activity at 10 µg/mL worked out at 75%. `CCNC(=O)CCc1sc2nc(=NS(=O)(=O)c3ccc(C)cc3)sn2c1-c1ccc2c(c1)CCCC2` [Example 94]: the activity at 10 µg/mL in the data set on bone resorption was found to be 76%. `O=S(=O)(N=c1nc2cc3c(cn2s1)CCCC3)c1ccccc1` [Example 14] returned an IC50 on endothelin receptor of 8.8 µM. As to `CCCCCCCCS(=O)(=O)N=c1nc2sc(C)c(-c3ccc(C4CCCCC4)cc3)n2s1` [Example 112], in the data set with swine coronary artery, 10 µM produced 35% inhibition and the inhibition at 30 µM was determined as 83%. The compound also showed a half-maximal inhibitory concentration (IC50) on endothelin receptor of 5.2 µM. On endothelin receptor, `CCS(=O)(=O)N=c1nc2sc(C)c(-c3ccc(C4CCCCC4)cc3)n2s1` [Example 82] returned an IC50 of 7.5 µM. That is a single-digit micromolar value.
